Results: US20050215490A1, “Polyene polyketides and methods of treating bacterial infections” (Ecopia BioSciences, Inc., priority 2003, published 2005)
Values after ≈ are worked out from the molar mass of the structure shown. Like-named read-outs stand apart in the source and are kept apart here.

Legend:
[1] = system: Bacillus megaterium (ATCC™ 14581); experiment: MIC, broth microdilution (NCCLS M7-A5); format: cell-based; settings: Priestia megaterium, ATCC14581; B. megaterium ATCC 14581; Mueller-Hinton; 35° C., 18 hours; read-out: MIC
Experimental: (§1) Antibacterial activity of Compounds 1 and 2 (Table 4) was measured by determining the minimal inhibitory concentration (MIC) necessary to obtain a complete inhibition of bacteria growth in eight indicator strains, namely Staphylococcus aureus (ATCC™ 6538P), Staphylococcus aureus MRS3 (ATCC™ 700699), Staphylococcus epidermidis (ATCC™ 12228), Bacillus subtilis (ATCC™ 23857), Bacillus megaterium (ATCC™ 14581), Enterococcus faecalis VRE-1 (ATCC™ 29212), Enterococcus faecalis VRE-2 (ATCC™ 51299) and Micrococcus luteus (ATCC™ 9341). Indicator strains preparation and MIC determination were performed according to the National Committee for Clinical Laboratory Standards (NCCLS) guideline M7-A5 Methods for Dilution Antimicrobial Susceptibility Tests for Bacteria That Grow Aerobically; Approved Standard-Fifth Edition. (NCCLS document M7-A5, ISBN 1-56238-394-9; NCCLS, 940 West Valley Road, Suite 1400, Wayne, Pa. 19087-1898 USA), the content of which is incorporated herein by reference.
(§2) Compounds 1 and 2 were prepared as 100× stock solution in DMSO, with concentrations ranging from 3.2 mg/ml to 0.00625 mg/ml (a two-fold dilution series over […]). An aliquot of each 100× stock solution was diluted 50-fold in test medium described below to give a set of ten (10) 2× solutions ranging from 64 to 0.125 μg/mL. 50 μl of each of the ten 2× solutions was aliquoted into the corresponding well of a 12-well row, with the final well reserved for medium alone control. Each test was made in duplicate.
(§3) Vancomycin (Sigma™) used as positive control compounds, was prepared as 2× stock solutions in sterile, double-distilled water (ddH2O) ranging from 64 μg/ml to […] (a two-fold dilution series over 10 points). An aliquot of 50 μl corresponding to each concentration (at 2×) was then transferred to 96-well microplates to obtain a series of eleven two-fold dilutions.
(§4) An isolated colony of each of the eight indicator strains was used to inoculate tubes containing 3 ml of test medium. Mueller-Hinton test medium was used for Staphylococcus aureus (ATCC™ 6538P), Staphylococcus aureus MRS3 (ATCC™ 700699), Staphylococcus epidermidis (ATCC™ 12228), Bacillus subtilis (ATCC™ 23857), Bacillus megaterium (ATCC™ 14581) and Micrococcus luteus (ATCC™ 9341) indicator strains, and BHI (Brain-Heart Infusion broth) test medium was used for Enterococcus faecalis VRE-1 (ATCC™ 29212) and Enterococcus faecalis VRE-2 (ATCC™ 51299) indicator strains. Cells were grown overnight at 28° C. with shaking. Inoculum density for each indicator strain was adjusted to OD600=0.1 in 5 ml 0.85% saline, then further diluted 1/100 in appropriate medium. 50 μl of the final dilution (in test medium) of each indicator strain was added to each well of a 12-well row. This brings the final dilution of the test article or control compound in solution to 1×. The final inoculum is approximately 5×10^5 CFU/ml.
(§5) The indicator strains were incubated with 11 concentrations of each of Compounds 1 and 2, Vancomycin (Sigma™) control compound and one media alone control. For MIC determination, assay plates were incubated at 35° C. for 18 hours.

[2] = system: Bacillus subtilis (ATCC™ 23857); experiment: MIC, broth microdilution (NCCLS M7-A5); format: cell-based; settings: ATCC23857, B. subtilis ATCC 23857, Mueller-Hinton, 35° C., 18 hours, read-out: MIC
Experimental: as §1, §2, §3, §4, §5

[3] = system: Staphylococcus aureus MRS3 (ATCC™ 700699); experiment: MIC, broth microdilution (NCCLS M7-A5); format: cell-based; settings: read-out: MIC
Experimental: as §1, §2, §3, §4, §5

[4] = system: Staphylococcus aureus NRRL B-313 (ATCC™ 6538P); experiment: MIC at different pH; format: cell-based; settings: S. aureus ATCC 6538P
Experimental: Antibacterial activitiy of Compounds.3, 4, 5, 6 and 7 are accomplished using the same method in a panel of bacterial strains and Vancomycin as positive control.
Antibacterial efficacy of Compounds 1, 2, 3, 4, 5 and 6 on bacterial strain Staphylococcus aureus NRRL B-313 (ATCC™ 6538P) was determined at different pH concentrations.

[5] = system: S. epidermidis (ATCC™ 12228); experiment: Minimal bactericidal concentration (NCCLS M26-A); format: cell-based, Staphylococcus epidermidis; settings: for MBC: Staphylococcus epidermidis, more than 99.9% growth inhibition
Experimental: Minimal bactericidal concentration (MBC) was also determined for Compounds 1 and 2. […] MBC were measured against three Staphylococcus strains, namely sp. aureus MSSA (ATCC™ 6538P), sp. aureus MRSA-hVISA (ATCC™ 700699) and sp. epidermidis (ATCC™ 12228). The results, shown in Table 6 below, were consistent with bactericidal activity (MBC/MIC ratio were of 1 to 2).
MBC determination was performed according to the NCCLS guideline M26-A: Methods for Determining Bactericidal Activity of Antimicrobial Agents (NCCLS document […], ISBN 1-56238-394-9; NCCLS, 940 West Valley Road, Suite 1400, Wayne, Pa. 19087-1898 USA), the content of which is incorporated herein by reference.
Microdilutions broth assays were performed using the same procedure as for MIC determination, Example 6. 24 hours post-incubation, cells were collected in wells corresponding to the MIC, 2×MIC and 4×MIC. Collected cells were plated on agar media. MBC were determined as the drug concentration at which more than 99.9% growth inhibition was observed. As a reference for 100% growth, cells grown in media only were also plated.

CD-1 female mice = experiment: in vivo; settings: CD-1, mouse
Experimental: A. Toxicity: Acute toxicities were determined using CD-1 female mice (supplied by Charles River Laboratories, Wilmington, Mass.) having a bodyweight of 18-25 g, and about 6 weeks of age. Compounds 1 and 2 at doses ranging from 1 to 70 mg/kg (formulated in 20% propylene glycol/water for a total volume of 10 μL/g of weight) were administered intraperitoneal (i.p.) and intravenous (i.v.) to groups of 5 mice (5 mice per concentration, per mode of administration). Two groups of 3 mice were injected with vehicle only. Mice were observed immediately after injection, within 4 hours and once a day for the subsequent days. Acute toxicity studies of Compound 1 in mice indicated no observable effect and high dose tolerability: 70 mg/kg intraperitoneal and 50 mg/kg intravenous (an MTD of 250 mg/kg was also determined by oral administration). […] In vitro Haemolytic activity results are also shown in Table 7, along with the in vivo toxicity and efficacy of Compound 1.

[6] = ATCC700699, S. aureus ATCC 700699, Mueller-Hinton, 35° C., 18 hours

SMILES | MIC [1] [µg/mL] | MIC [2] [µg/mL] | MIC [3, 6] [µg/mL] | MIC ([3]; Table 6, S. aureus MRSA-hVISA) [µg/mL] | MIC ([4]; pH 5.0, read-out: MIC) [µg/mL] | MIC ([4]; pH 6.0, read-out: MIC) [µg/mL] | MIC ([4]; pH 7.0, read-out: MIC) [µg/mL] | MBC/MIC [5] | MBC [5] [µg/mL] | Acute toxicity: dose with no observable effect (high dose tolerability) (CD-1 female mice; iv) [mg/kg] | Acute toxicity: dose with no observable effect (high dose tolerability) (CD-1 female mice; ip) [mg/kg]
C\C(=C/C=C/C=C/C=C/C=C/C(C)C(OC1OC(C(=O)O)C(O)C(O)C1O)/C(C)=C/C(C)CCC/C=C/C(C)C/C=C/CCCNC(=N)N)C(=O)NC1=C(O)CCC1=O (stereo not drawn) [Compound 2, 6-{16-guanidino-1-[11-(2-hydroxy-5-oxocyclopent-1-enylcarbamoyl)-1-methyldodeca-2,4,6,8,10-pentaenyl]-2,4,10-trimethylhexadeca-2,8,12-trienyloxy}-3,4,5-trihydroxy-tetrahydro-pyran-2-carboxylic acid] | 1 (≈ 1.22 µM) | 2 (≈ 2.43 µM) | 1 (≈ 1.22 µM) | 1 (≈ 1.22 µM) | 0.0625 (≈ 0.0759 µM) | 0.125 (≈ 0.152 µM) | 1 (≈ 1.22 µM) | 1 | 1 (≈ 1.22 µM) | 25 | 
CC(=CC=CC=CC=CC=CC(C)C(OC1OC(C(=O)O)C(O)C(O)C1O)C(C)=CC(C)CCCC=CC(C)CC=CCCCN(C)C(=N)N)C(=O)NC1=C(O)CCC1=O (stereo not drawn) [Compound 1, 3,4,5-trihydroxy-6-[1-[11-(2-hydroxy-5-oxocyclopent-1-enylcarbamoyl)-1-methyldodeca-2,4,6,8,10-pentaenyl]-2,4,10-trimethyl-16-(N-methyl-guanidino)-hexadeca-2,8,12-trienyloxy]-tetrahydropyran-2-carboxylic acid] | 1 (≈ 1.19 µM) | 1 (≈ 1.19 µM) | 4 (≈ 4.78 µM) | 4 (≈ 4.78 µM) | 0.125 (≈ 0.149 µM) | 0.25 (≈ 0.299 µM) | 1 (≈ 1.19 µM) | 1 | 4 (≈ 4.78 µM) | 50 | 70
